Organism: Rattus norvegicus
Assay: DrugMatrix - Regimen: Daily Repeat
Format: toxicity, organism-based, Sprague-Dawley
Set-up: regimen Daily Repeat, gender Male, age 6-8 weeks
Conditions: in vivo, po, route oral GAVAGE, vehicle .5 % CMC; for ABSOLUTE BASOPHIL / ABSOLUTE EOSINOPHIL / ABSOLUTE LYMPHOCYTE / ABSOLUTE MONOCYTE / ABSOLUTE SEGMENTED NEUTROPHIL / BASOPHIL / EOSINOPHIL / ERYTHROCYTE COUNT / HEMATOCRIT / HEMOGLOBIN / LEUKOCYTE COUNT / LYMPHOCYTE / MEAN CORPUSCULAR HEMOGLOBIN / MEAN CORPUSCULAR HEMOGLOBIN CONCENTRATION / MEAN CORPUSCULAR VOLUME / MONOCYTE / NEUTROPHIL / NUCLEATED RED BLOOD CELLS / PLATELET COUNT: tissue Blood; for ALANINE AMINOTRANSFERASE / ALBUMIN / ALKALINE PHOSPHATASE / ASPARTATE AMINOTRANSFERASE / BLOOD UREA NITROGEN / CARBON DIOXIDE / CHLORIDE / CHOLESTEROL / CREATINE PHOSPHOKINASE / CREATININE / GLUCOSE / LACTATE DEHYDROGENASE / LIPASE / PHOSPHORUS / POTASSIUM / SODIUM / TOTAL BILIRUBIN / TOTAL PROTEIN / URIC ACID: tissue Plasma
[1] = 0 mg/kg, 72 h, dose level Control, time 3 day
[2] = 0 mg/kg, 120 h, dose level Control, time 5 day
[3] = 19 mg/kg, 72 h, dose level High, time 3 day

In the case of `NCC(CC(=O)O)c1ccc(Cl)cc1` (centres undefined) [BACLOFEN], the “ABSOLUTE BASOPHIL” value [1] is reported as 0 CELLS/uL, the “ABSOLUTE EOSINOPHIL” value [1] is reported as 171.33 CELLS/uL and the “ABSOLUTE LYMPHOCYTE” value [1] is reported as 13776.5 CELLS/uL. The “ABSOLUTE MONOCYTE” value [1] was 180.83 CELLS/uL, the “ABSOLUTE SEGMENTED NEUTROPHIL” value [1] was 1121.33 CELLS/uL and the BASOPHIL [1] was 0%. For the same molecule, the EOSINOPHIL [1] was 1%, the “ERYTHROCYTE COUNT” value [1] was 5.56 x10E6/uL and the HEMATOCRIT [1] was 34.75%. The HEMOGLOBIN [1] was 13.68 G/DL, the “LEUKOCYTE COUNT” value [1] was 15.25 x10E3/uL and the LYMPHOCYTE [1] was 90.17%. For the same molecule, the “MEAN CORPUSCULAR HEMOGLOBIN” value [1] was 24.6 pg, the “MEAN CORPUSCULAR HEMOGLOBIN CONCENTRATION” value [1] was 39.4 G/DL and the “MEAN CORPUSCULAR VOLUME” value [1] was 62.48 fL. The MONOCYTE [1] was 1.17%, the NEUTROPHIL [1] was 7.67% and the “NUCLEATED RED BLOOD CELLS” value [1] was 0 /100WBC. For the same molecule, the “PLATELET COUNT” value [1] was 1342 x10E3/uL, the “ALANINE AMINOTRANSFERASE” value [1] was 49.67 u/L and the ALBUMIN [1] was 4.15 G/DL. For the same molecule, the “ALKALINE PHOSPHATASE” value [1] was 346.83 u/L, the “ASPARTATE AMINOTRANSFERASE” value [1] was 108.17 u/L and the “BLOOD UREA NITROGEN” value [1] was 17.33 mg/dL. The “CARBON DIOXIDE” value [1] was 25 mmol/L, the CHLORIDE [1] was 100.83 MEQ/L and the CHOLESTEROL [1] was 66.83 mg/dL. The “CREATINE PHOSPHOKINASE” value [1] was 788 u/L, the CREATININE [1] was 0.18 mg/dL and the GLUCOSE [1] was 151.67 mg/dL. The “LACTATE DEHYDROGENASE” value [1] was 982.5 u/L, the LIPASE [1] was 10.33 u/L and the PHOSPHORUS [1] was 11.23 mg/dL. For the same molecule, the POTASSIUM [1] was 6.37 MEQ/L, the SODIUM [1] was 141.02 MEQ/L and the “TOTAL BILIRUBIN” value [1] was 0.18 mg/dL. For the same molecule, the “TOTAL PROTEIN” value [1] was 5.9 G/DL, the “URIC ACID” value [1] was 1.8 mg/dL and the “ABSOLUTE BASOPHIL” value [2] was 0 CELLS/uL. The “ABSOLUTE EOSINOPHIL” value [2] was 69 CELLS/uL, the “ABSOLUTE LYMPHOCYTE” value [2] was 13632.83 CELLS/uL and the “ABSOLUTE MONOCYTE” value [2] was 139.83 CELLS/uL. For the same molecule, the “ABSOLUTE SEGMENTED NEUTROPHIL” value [2] was 1225 CELLS/uL, the BASOPHIL [2] was 0% and the EOSINOPHIL [2] was 0.33%. For the same molecule, the “ERYTHROCYTE COUNT” value [2] was 5.52 x10E6/uL, the HEMATOCRIT [2] was 33.98% and the HEMOGLOBIN [2] was 13.22 G/DL. For the same molecule, the “LEUKOCYTE COUNT” value [2] was 15.07 x10E3/uL, the LYMPHOCYTE [2] was 90.83% and the “MEAN CORPUSCULAR HEMOGLOBIN” value [2] was 23.95 pg. The “MEAN CORPUSCULAR HEMOGLOBIN CONCENTRATION” value [2] was 38.9 G/DL, the “MEAN CORPUSCULAR VOLUME” value [2] was 61.53 fL and the MONOCYTE [2] was 0.83%. For the same molecule, the NEUTROPHIL [2] was 8%, the “NUCLEATED RED BLOOD CELLS” value [2] was 0 /100WBC and the “PLATELET COUNT” value [2] was 1196 x10E3/uL. The “ALANINE AMINOTRANSFERASE” value [2] was 49.17 u/L, the ALBUMIN [2] was 4.2 G/DL and the “ALKALINE PHOSPHATASE” value [2] was 352.33 u/L. The “ASPARTATE AMINOTRANSFERASE” value [2] was 89.67 u/L, the “BLOOD UREA NITROGEN” value [2] was 18 mg/dL and the “CARBON DIOXIDE” value [2] was 27.67 mmol/L. The CHLORIDE [2] was 101 MEQ/L, the CHOLESTEROL [2] was 72.83 mg/dL and the “CREATINE PHOSPHOKINASE” value [2] was 417.5 u/L. The CREATININE [2] was 0.18 mg/dL, the GLUCOSE [2] was 150.5 mg/dL and the “LACTATE DEHYDROGENASE” value [2] was 517.33 u/L. For the same molecule, the LIPASE [2] was 9 u/L, the PHOSPHORUS [2] was 11.87 mg/dL and the POTASSIUM [2] was 6.57 MEQ/L. For the same molecule, the SODIUM [2] was 143.62 MEQ/L, the “TOTAL BILIRUBIN” value [2] was 0.2 mg/dL and the “TOTAL PROTEIN” value [2] was 6.08 G/DL. For the same molecule, the “URIC ACID” value [2] was 1.45 mg/dL, the “ABSOLUTE BASOPHIL” value [3] was 0 CELLS/uL and the “ABSOLUTE EOSINOPHIL” value [3] was 0 CELLS/uL. The “ABSOLUTE LYMPHOCYTE” value [3] was 12161.33 CELLS/uL, the “ABSOLUTE MONOCYTE” value [3] was 182.33 CELLS/uL and the “ABSOLUTE SEGMENTED NEUTROPHIL” value [3] was 1123 CELLS/uL. The BASOPHIL [3] was 0%, the EOSINOPHIL [3] was 0% and the “ERYTHROCYTE COUNT” value [3] was 5.27 x10E6/uL. The HEMATOCRIT [3] was 34.17%, the HEMOGLOBIN [3] was 13.33 G/DL and the “LEUKOCYTE COUNT” value [3] was 13.47 x10E3/uL. The LYMPHOCYTE [3] was 90.33%, the “MEAN CORPUSCULAR HEMOGLOBIN” value [3] was 25.37 pg and the “MEAN CORPUSCULAR HEMOGLOBIN CONCENTRATION” value [3] was 39.03 G/DL. The “MEAN CORPUSCULAR VOLUME” value [3] was 64.97 fL, the MONOCYTE [3] was 1.33% and the NEUTROPHIL [3] was 8.33%. For the same molecule, the “NUCLEATED RED BLOOD CELLS” value [3] was 0 /100WBC, the “PLATELET COUNT” value [3] was 1177 x10E3/uL and the “ALANINE AMINOTRANSFERASE” value [3] was 54.33 u/L. The ALBUMIN [3] was 4.03 G/DL, the “ALKALINE PHOSPHATASE” value [3] was 373.67 u/L and the “ASPARTATE AMINOTRANSFERASE” value [3] was 85.33 u/L. For the same molecule, the “BLOOD UREA NITROGEN” value [3] was 15.33 mg/dL, the “CARBON DIOXIDE” value [3] was 26.33 mmol/L and the CHLORIDE [3] was 101.67 MEQ/L. The CHOLESTEROL [3] was 64 mg/dL, the “CREATINE PHOSPHOKINASE” value [3] was 394.67 u/L and the CREATININE [3] was 0.16 mg/dL. For the same molecule, the GLUCOSE [3] was 125 mg/dL, the “LACTATE DEHYDROGENASE” value [3] was 438.33 u/L and the LIPASE [3] was 10 u/L. The PHOSPHORUS [3] was 11.93 mg/dL, the POTASSIUM [3] was 7.01 MEQ/L and the SODIUM [3] was 142.53 MEQ/L. The “TOTAL BILIRUBIN” value [3] was 0.2 mg/dL, the “TOTAL PROTEIN” value [3] was 5.53 G/DL and the “URIC ACID” value [3] was 1.57 mg/dL.
